Assays:
[1] = tested on: insulin-resistant C2C12 myotubes; assay: 2-Deoxy-D-glucose uptake, insulin-resistant C2C12 myotubes; assay type: cell-based, mouse; settings: 0.6 mM palmitate; 100 nM insulin
Procedure: (§1) Skeletal muscle is the primary site of glucose metabolism, accounting for approximately […] of the entire body’s glucose uptake in the presence of insulin [22]. […] The effect of PEG-BHD1028 on glucose uptake in insulin-resistant C2C12 skeletal muscle cells was evaluated. To induce insulin resistance, differentiated C2C12 myotubes were treated with 0.6 mM palmitate and incubated for 16 h and then treated with 100 nM insulin and PEG-BHD1028 at concentrations of 100 and 500 nM for 30 min.
(§2) The 2-DG uptake of C2C12 cells was measured using the Glucose Uptake Assay Kit (Colorimetric, Ab136955, Abcam, Cambridge, UK) according to the manufacturer’s instruction. Palmitate to induce insulin resistance was prepared with minor modifications from the previous description. Briefly, palmitate was dissolved in 0.1 M NaOH to a concentration of 20 mM by heating at 75 °C and the dissolved solution was then diluted with 5% fatty acid-free bovine serum at a stock solution of 6 mM at 55 °C. Cells were treated with 0.6 mM palmitate overnight. The fixed cells were washed three times with DPBS, followed by incubation in Krebs-Ringer-Phosphate-Hepes (KRPH) buffer containing 2% fatty acid free-BSA for 40 min. […] Absorbance was measured using an Epoch microplate reader (BioTek Instruments, Inc., Winooski, VT, USA) at 412 nm.

C2C12 myotubes = assay: 2-Deoxy-D-glucose uptake, non-resistant C2C12 myotubes; assay type: cell-based, mouse; settings: 100 nM insulin
Procedure: as §1, §2

[2] = via AMPK, after binding to AdipoR1 and AdipoR2 in the hypothalamus; cited from earlier work
Description: Besides the effect on the amelioration of insulin resistance, it has been widely known that adiponectin induces weight loss through fatty acid oxidation and energy expenditure. At the molecular level, adiponectin activates 5’ AMP-activated protein kinase (AMPK) and peroxisome proliferator-activated receptor alpha (PPARα) signal pathways. AMPK pathway ultimately enhances mitochondrial biogenesis and fatty acid β-oxidation, and the activated PPARα promotes uptake, utilization, and catabolism of fatty acids by upregulating the genes involved in fatty acid transport, fatty acid-binding ...

diabetic swine = settings: cited from earlier work
Description: It has also been well accepted that adiponectin alleviates insulin resistance, and adiponectin deficiency leads to abnormal glucose metabolism. Thus, insulin resistance has been recognized as the most fundamental root cause of type 2 diabetes mellitus, and the concentration of circulating adiponectin is negatively correlated with insulin resistance. […] Recent studies also have shown that p38 MAPK acts as an essential mediator in regulating adiponectin-induced ...

## insulin: insulin
[1]
  glucose uptake, insulin-resistant cells, insulin alone: not observed
C2C12 myotubes
  glucose uptake, non-resistant cells, insulin alone: significantly increased

B1: adiponectin: hormone, endogenous ligand of AdipoR1 and AdipoR2 (protein, UniProt Q15848 19-244, looked up)
Adiponectin: ETTTQGPGVLLPLPKGACTGWMAGIPGHPGHNGAPGRDGRDGTPGEKGEKGDPGLIGPKGDIGETGVPGAEGPRGFPGIQGRKGEPGEGAYVYRSAFSVGLETYVTIPNMPIRFTKIFYNQQNHYDGSTGKFHCNIPGLYYFAYHITVYMKDVKVSLFKKDKAMLFTYDQYQENNVDQASGSVLLHLEVGDQVWLQVYGEGERNGLYADNDNDSTFTGFLLYHDTN
[2]
  appetite: induced appetite
Diabetic swine
  glucose metabolism / insulin sensitivity: enhanced glucose metabolism by improving insulin sensitivity

From publication PMC7830917, “PEG-BHD1028 Peptide Regulates Insulin Resistance and Fatty Acid β-Oxidation, and Mitochondrial Biogenesis by Binding to Two Heterogeneous Binding Sites of Adiponectin Receptors, AdipoR1 and AdipoR2” (International Journal of Molecular Sciences, 2021)
